In patent publication US20260317344A1, “EGFR INHIBITORS FOR TREATING DISEASE” (BLOSSOMHILL THERAPEUTICS, INC., priority 2023, published 2026):

How the values were obtained:
[1] = system: BaF3 cells with engineered EGFR L858R/T790M/C797S; assay: 3-Day CellTiter Glo (CTG) cell proliferation assay, BaF3 EGFR L858R/T790M/C797S; format: cell-based; details: Mus musculus, 3-day CTG proliferation, 72 hours
Summary of the method: (§1)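 Luminescent ATP read-out (CellTiter-Glo 2.0) after 72 h compound exposure gives IC50 values. BaF3 transgenic cells, one thousand per well, received a nine-dose series and were kept at 37 °C under 5% CO2.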

[2] = target: EGFR (D746-750/C797S) (Homo sapiens, UniProt P00533, C797S/DEL746-750); assay: HotSpot radiometric kinase assay, inhibition of EGFR 746-750/C797S mutant; format: biochemical; details: 33P ATP, room temperature, 120 m
EGFR (D746-750/C797S), sequence (P00533 with tags, fused parts or gaps DEL746-750/C797S): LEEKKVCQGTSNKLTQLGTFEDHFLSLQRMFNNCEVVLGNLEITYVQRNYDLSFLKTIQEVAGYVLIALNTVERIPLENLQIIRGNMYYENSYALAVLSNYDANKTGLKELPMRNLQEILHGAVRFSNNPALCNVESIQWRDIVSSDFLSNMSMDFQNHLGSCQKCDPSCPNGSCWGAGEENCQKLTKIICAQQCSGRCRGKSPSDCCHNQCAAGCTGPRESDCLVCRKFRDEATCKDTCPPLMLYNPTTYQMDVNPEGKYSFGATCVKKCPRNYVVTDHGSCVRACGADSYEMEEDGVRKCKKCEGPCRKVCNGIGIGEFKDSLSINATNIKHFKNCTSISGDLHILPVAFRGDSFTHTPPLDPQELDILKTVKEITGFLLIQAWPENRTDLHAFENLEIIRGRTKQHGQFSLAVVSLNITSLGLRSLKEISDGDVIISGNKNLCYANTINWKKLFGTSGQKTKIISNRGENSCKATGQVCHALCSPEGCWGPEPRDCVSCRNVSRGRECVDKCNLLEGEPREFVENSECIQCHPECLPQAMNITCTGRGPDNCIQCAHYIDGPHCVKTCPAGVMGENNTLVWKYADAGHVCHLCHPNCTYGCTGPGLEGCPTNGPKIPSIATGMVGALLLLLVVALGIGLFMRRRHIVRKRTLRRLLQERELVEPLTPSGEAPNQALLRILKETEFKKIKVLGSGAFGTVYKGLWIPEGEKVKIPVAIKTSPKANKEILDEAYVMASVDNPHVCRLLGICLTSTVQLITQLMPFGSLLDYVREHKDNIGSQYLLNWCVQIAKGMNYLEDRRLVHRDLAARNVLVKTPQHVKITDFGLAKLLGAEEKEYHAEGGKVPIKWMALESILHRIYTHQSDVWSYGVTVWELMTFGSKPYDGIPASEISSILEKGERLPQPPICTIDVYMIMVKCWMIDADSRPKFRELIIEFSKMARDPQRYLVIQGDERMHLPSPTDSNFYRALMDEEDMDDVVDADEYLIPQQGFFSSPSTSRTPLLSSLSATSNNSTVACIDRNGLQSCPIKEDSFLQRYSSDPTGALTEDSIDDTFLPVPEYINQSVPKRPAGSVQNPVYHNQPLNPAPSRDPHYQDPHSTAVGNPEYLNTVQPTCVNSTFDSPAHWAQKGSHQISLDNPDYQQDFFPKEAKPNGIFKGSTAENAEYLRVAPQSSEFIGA
Summary of the method: (§2)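 Radiometric filter-binding format: ATP plus 33P-ATP ([…]) was added about 20 min after compound to kinase and substrate in HEPES pH 7.5 buffer with Mg2+, EGTA, Brij35, BSA, vanadate, DTT and 1% DMSO. After 120 min at room temperature, reactions were spotted on P81 paper and washed in phosphoric acid; IC50 values fitted.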

[3] = target: EGFR (D770_N771insNPG) (Homo sapiens, UniProt P00533, INS770NPG); assay: HotSpot radiometric kinase assay, inhibition of EGFR (D770_N771insNPG) mutant; format: biochemical; details: 33P ATP, room temperature, 120 m
Summary of the method: as §2

[4] = system: BaF3 cells with engineered EGFR d746-750/T790M; assay: 3-Day CellTiter Glo (CTG) cell proliferation assay, BaF3 EGFR d746-750/T790M; format: cell-based; details: Mus musculus; BaF3 EGFR d746-750/T790M cells, 3-day CTG proliferation, 72 hours
Summary of the method: as §1

[5] = target: EGFR (D746-750) (Homo sapiens, UniProt P00533, DEL746-750); assay: HotSpot radiometric kinase assay, inhibition of EGFR 746-750 mutant; format: biochemical; details: 33P ATP, room temperature, 120 m
Summary of the method: as §2

[6] = target: EGFR (L858R/T790M/C797S) (Homo sapiens, UniProt P00533, C797S/L858R/T790M); assay: HotSpot radiometric kinase assay, inhibition of EGFR L858R/T790M/C797S mutant; format: biochemical; details: 33P ATP, room temperature, 120 m
Summary of the method: as §2

[7] = system: BaF3 cells with engineered EGFR L858R/C797S; assay: 3-Day CellTiter Glo (CTG) cell proliferation assay, BaF3 EGFR L858R/C797S; format: cell-based; details: Mus musculus, 3-day CTG proliferation, 72 hours
Summary of the method: as §1

[8] = target: T1, pEGFR, A431 cells (wildtype EGFR) (Homo sapiens, UniProt P00533); assay: Cellular EGFR phosphorylation assay (LANCE Ultra TR-FRET) in A431 cells; format: cell-based; details: 4 hours at 37° C., 40 ng/mL EGF for the final 10 minutes, read-out: A431 pEGFR IC50
T1 construct: pEGFR (Tyr1068) TR-FRET
T1 sequence (P00533 25-1210): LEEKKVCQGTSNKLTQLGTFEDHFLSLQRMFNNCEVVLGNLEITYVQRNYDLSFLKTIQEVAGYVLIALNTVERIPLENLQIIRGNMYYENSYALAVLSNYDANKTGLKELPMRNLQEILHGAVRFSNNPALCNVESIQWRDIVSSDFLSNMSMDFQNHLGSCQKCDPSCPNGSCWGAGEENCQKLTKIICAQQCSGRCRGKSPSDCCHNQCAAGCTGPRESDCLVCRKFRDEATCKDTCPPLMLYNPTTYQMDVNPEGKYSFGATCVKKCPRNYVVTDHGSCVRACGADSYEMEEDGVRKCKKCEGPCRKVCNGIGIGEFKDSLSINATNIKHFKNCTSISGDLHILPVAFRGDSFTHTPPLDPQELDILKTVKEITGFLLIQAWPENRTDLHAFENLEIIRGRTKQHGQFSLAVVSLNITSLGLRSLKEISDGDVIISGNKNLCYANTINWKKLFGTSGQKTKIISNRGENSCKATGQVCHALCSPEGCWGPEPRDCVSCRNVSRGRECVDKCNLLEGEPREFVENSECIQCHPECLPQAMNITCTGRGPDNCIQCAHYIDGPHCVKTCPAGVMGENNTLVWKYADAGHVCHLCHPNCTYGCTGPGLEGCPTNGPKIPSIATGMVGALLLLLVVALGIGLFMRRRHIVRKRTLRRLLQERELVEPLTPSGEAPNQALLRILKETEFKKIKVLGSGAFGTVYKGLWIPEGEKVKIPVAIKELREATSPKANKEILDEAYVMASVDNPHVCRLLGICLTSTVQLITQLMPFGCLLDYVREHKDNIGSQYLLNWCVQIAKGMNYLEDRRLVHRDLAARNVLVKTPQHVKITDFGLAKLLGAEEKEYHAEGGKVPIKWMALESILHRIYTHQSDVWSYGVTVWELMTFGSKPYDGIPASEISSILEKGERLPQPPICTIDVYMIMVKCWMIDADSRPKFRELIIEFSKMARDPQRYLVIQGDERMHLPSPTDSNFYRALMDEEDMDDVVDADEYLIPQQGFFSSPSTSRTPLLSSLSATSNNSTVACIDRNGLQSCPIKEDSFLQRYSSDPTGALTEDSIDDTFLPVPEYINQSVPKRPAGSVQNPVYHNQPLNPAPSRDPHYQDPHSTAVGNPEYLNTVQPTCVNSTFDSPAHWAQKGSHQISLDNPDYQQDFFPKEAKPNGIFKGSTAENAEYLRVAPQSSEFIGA
Summary of the method: (§3)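 PC-9 and NCI-H1975 cells (50 thousand/well) or A431 cells (30 thousand/well) treated next day for 4 h at 37° C with a 9-dose 3-fold titration; A431 stimulated with 40 ng/mL EGF for the final 10 min. Lysate phospho-EGFR (Tyr1068) read by LANCE Ultra TR-FRET; IC50 derived.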

[9] = system: HCC827 cells; assay: 5-Day CellTiter Glo (CTG) cell proliferation assay, HCC827; format: cell-based; details: Homo sapiens; HCC827 cells (d746-750 EGFR), 5-day CTG proliferation, 120 hours; read-out: HCC827 IC50
Summary of the method: (§4)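 Proliferation of EGFR-driven NSCLC cells was scored as CellTiter-Glo 2.0 luminescence after a 5-day (120 h) incubation with compounds in 9 doses. IC50 values came from the dose-response curves.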

[10] = target: T2, pEGFR, NCI-H1975 cells (L858R/T790M EGFR) (Homo sapiens, UniProt P00533, L858R/T790M); assay: Cellular EGFR phosphorylation assay (LANCE Ultra TR-FRET) in NCI-H1975 cells; format: cell-based; details: 4 hours at 37° C., read-out: H1975 pEGFR IC50
T2 construct: pEGFR (Tyr1068) TR-FRET
T2 sequence (P00533 25-1210 T790M/L858R): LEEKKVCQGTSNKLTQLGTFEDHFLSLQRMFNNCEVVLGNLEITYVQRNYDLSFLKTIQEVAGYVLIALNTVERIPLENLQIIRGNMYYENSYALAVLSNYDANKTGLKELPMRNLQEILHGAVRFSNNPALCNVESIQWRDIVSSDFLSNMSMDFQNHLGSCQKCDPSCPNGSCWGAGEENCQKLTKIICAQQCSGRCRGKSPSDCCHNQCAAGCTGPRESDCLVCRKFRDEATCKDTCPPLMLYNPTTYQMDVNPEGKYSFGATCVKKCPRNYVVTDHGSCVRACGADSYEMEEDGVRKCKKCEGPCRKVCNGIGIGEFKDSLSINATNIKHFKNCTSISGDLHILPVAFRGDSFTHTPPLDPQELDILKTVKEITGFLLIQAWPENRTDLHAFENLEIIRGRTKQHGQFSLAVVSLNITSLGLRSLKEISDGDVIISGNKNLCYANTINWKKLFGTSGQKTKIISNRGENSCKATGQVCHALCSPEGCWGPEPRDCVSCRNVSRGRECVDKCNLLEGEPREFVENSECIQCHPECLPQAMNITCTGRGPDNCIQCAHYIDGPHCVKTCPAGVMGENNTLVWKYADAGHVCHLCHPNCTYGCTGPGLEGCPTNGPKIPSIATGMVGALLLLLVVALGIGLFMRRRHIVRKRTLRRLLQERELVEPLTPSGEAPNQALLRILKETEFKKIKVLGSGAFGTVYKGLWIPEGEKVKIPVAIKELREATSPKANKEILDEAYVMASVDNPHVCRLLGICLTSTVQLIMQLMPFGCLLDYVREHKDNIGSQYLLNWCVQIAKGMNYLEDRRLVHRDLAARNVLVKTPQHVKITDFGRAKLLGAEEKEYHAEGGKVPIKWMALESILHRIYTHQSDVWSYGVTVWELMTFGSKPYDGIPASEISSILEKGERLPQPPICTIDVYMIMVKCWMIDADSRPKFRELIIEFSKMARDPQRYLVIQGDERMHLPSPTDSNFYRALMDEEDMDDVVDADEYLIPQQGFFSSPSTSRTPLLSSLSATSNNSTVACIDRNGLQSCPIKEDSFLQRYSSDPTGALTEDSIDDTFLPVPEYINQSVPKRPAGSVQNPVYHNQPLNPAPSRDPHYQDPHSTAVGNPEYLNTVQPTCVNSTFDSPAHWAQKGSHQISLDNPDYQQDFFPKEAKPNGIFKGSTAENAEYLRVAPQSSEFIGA
Summary of the method: as §3

[11] = target: T3, pEGFR, PC-9 cells (d746-750 EGFR) (Homo sapiens, UniProt P00533, DEL746-750); assay: Cellular EGFR phosphorylation assay (LANCE Ultra TR-FRET) in PC-9 cells; format: cell-based; details: 4 hours at 37° C., read-out: PC-9 pEGFR IC50
T3 construct: pEGFR (Tyr1068) TR-FRET
T3 sequence (P00533 with tags, fused parts or gaps DEL746-750): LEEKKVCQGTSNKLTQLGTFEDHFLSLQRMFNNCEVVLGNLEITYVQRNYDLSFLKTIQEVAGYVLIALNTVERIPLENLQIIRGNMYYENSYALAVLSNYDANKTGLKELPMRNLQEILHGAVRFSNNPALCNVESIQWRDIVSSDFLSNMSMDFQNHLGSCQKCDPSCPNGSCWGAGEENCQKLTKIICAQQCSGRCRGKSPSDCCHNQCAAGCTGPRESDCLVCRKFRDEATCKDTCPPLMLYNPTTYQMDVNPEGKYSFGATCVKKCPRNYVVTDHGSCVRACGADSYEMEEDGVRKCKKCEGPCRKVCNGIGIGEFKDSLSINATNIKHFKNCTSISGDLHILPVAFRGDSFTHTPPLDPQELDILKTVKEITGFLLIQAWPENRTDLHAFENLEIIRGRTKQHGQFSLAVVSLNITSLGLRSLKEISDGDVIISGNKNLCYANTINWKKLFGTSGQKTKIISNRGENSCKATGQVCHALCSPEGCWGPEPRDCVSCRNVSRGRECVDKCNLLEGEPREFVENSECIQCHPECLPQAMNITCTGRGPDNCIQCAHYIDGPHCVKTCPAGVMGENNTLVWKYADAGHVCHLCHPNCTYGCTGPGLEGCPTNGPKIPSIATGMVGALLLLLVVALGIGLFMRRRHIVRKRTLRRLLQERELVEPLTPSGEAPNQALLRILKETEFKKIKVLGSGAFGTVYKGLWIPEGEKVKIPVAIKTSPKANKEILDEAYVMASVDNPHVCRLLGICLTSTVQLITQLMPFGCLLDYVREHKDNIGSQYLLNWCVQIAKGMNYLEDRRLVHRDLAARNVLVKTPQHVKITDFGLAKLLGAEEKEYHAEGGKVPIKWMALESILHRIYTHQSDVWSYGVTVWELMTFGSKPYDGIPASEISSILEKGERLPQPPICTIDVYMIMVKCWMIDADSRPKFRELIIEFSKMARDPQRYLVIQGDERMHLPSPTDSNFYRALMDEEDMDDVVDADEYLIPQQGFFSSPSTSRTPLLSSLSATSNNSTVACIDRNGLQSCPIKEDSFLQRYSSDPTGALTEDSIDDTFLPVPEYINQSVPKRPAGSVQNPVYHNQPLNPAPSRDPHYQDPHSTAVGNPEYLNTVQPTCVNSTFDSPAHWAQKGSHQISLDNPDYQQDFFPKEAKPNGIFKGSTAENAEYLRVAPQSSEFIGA
Summary of the method: as §3

[12] = system: NCI-H1975 cells; assay: 5-Day CellTiter Glo (CTG) cell proliferation assay, NCI-H1975; format: cell-based; details: Homo sapiens; NCI-H1975 cells (L858R/T790M EGFR), 5-day CTG proliferation, 120 hours; read-out: H1975 IC50
Summary of the method: as §4

[13] = system: PC-9 cells; assay: 5-Day CellTiter Glo (CTG) cell proliferation assay, PC-9; format: cell-based; details: Homo sapiens; PC-9 cells (d746-750 EGFR), 5-day CTG proliferation, 120 hours; read-out: PC-9 IC50
Summary of the method: as §4

| SMILES | IC50 [1] [nM] | IC50 [2] [nM] | IC50 [3] [nM] | IC50 [4] [nM] | IC50 [5] [nM] | IC50 [6] [nM] | IC50 [7] [nM] | IC50 [8] [nM] | IC50 [9] [nM] | IC50 [10] [nM] | IC50 [11] [nM] | IC50 [12] [nM] | IC50 [13] [nM] |
| --- | --- | --- | --- | --- | --- | --- | --- | --- | --- | --- | --- | --- | --- |
| CCN1Cc2c(c(OCC#N)nn2CCO)/C=C/c2n[nH]c3cnc(cc23)-c2c(C)nn(C)c2O[C@H](C)C1 [Ex. 36, {[(10R,17E)-12-ethyl-14-(2-hydroxyethyl)-6,8,10-trimethyl-2,10,11,12,13,14-hexahydro-8H-5,3-(azenometheno)tripyrazolo[3,4-f:3′,4′-j:4″,3″-n][1,4]oxazacyclopentadecin-16-yl]oxy}acetonitrile] | 1.97 | 0.29 | 0.14 | 2.13 | 0.1 | 0.13 | 0.47 | – | – | – | – | – | – |
| CCOc1nn([C@@H](C)CO)c2c1/C=C/c1n[nH]c3c(C)nc(cc13)-c1c(C)nn(C)c1O[C@@H](C)[C@H]1CCCN1C2 [Ex. 179, (2S)-2-[(8aR,9S,19E)-1-ethoxy-9,11,13,21-tetramethyl-7,8,8a,9,11,17-hexahydro-6H-14,16-(azenometheno)tripyrazolo[3,4-f:3′,4′-j:4″,3″-n]pyrrolo[2,1-c][1,4]oxazacyclopentadecin-3(4H)-yl]propan-1-ol] | 1.47 | – | – | 0.88 | – | – | 0.1 | 8.64 | 0.23 | 1.38 | 0.69 | 1.41 | 0.78 |
| CCOc1nn(CCO)c2c1/C=C/c1n[nH]c3c(C)nc(cc13)-c1c(C)nn(C)c1OCCN(C)C2 [Ex. 75, 2-[(17E)-16-ethoxy-6,8,12,20-tetramethyl-2,8,10,11,12,13-hexahydro-14H-5,3-(azenometheno)tripyrazolo[3,4-f:3′,4′-j:4″,3″-n][1,4]oxazacyclopentadecin-14-yl]ethan-1-ol] | 2.94 | – | – | 203 | – | – | 0.22 | 53.7 | 10.6 | 7.41 | 15 | 74 | 43.1 |
| Cc1nn(C)c2c1/C=C/c1n[nH]c3c(C)nc(cc13)-c1c(C)nn(C)c1O[C@@H](C)CN(C)C2 [Ex. 103, (10S,17E)-6,8,10,12,14,16,20-heptamethyl-2,10,11,12,13,14-hexahydro-8H-5,3-(azenometheno)tripyrazolo[3,4-f:3′,4′-j:4″,3″-n][1,4]oxazacyclopentadecine] | 1.87 | – | – | 13.6 | – | – | 0.56 | 13.4 | 2.13 | 3.44 | 9.78 | 11.2 | 9.94 |
| CCOc1nn(C[C@H](C)O)c2c1/C=C/c1n[nH]c3c(C)nc(cc13)-c1c(C)nn(C)c1O[C@@H](C)CN(C)C2 [Ex. 90, (2S)-1-[(10S,17E)-16-ethoxy-6,8,10,12,20-pentamethyl-2,8,10,11,12,13-hexahydro-14H-5,3-(azenometheno)tripyrazolo[3,4-f3′,4′-j:4″,3″-n][1,4]oxazacyclopentadecin-14-yl]propan-2-ol] | 0.48 | – | – | 0.61 | – | – | 0.06 | 8.44 | 0.58 | 1.1 | 1.26 | 0.97 | 2.37 |
| CCOc1nn([C@@H](C)CO)c2c1/C=C/c1n[nH]c3cnc(cc13)-c1c(C)nn(C)c1O[C@@H](C)CNC2 [Ex. 92, (2S)-2-[(10S,17E)-16-ethoxy-6,8,10-trimethyl-2,8,10,11,12,13-hexahydro-14H-5,3-(azenometheno)tripyrazolo[3,4-f:3′,4′-j:4″,3″-n][1,4]oxazacyclopentadecin-14-yl]propan-1-ol] | 4.12 | – | – | 29.7 | – | – | 0.74 | 33.4 | 5.37 | 14.1 | 12.6 | 68.5 | 43.4 |
| CCOc1nn([C@@H](C)CO)c2c1/C=C/c1n[nH]c3c(C)nc(cc13)-c1c(C)nn(C)c1O[C@@H](C)CNC2 [Ex. 91, (2S)-2-[(10S,17E)-16-ethoxy-6,8,10,20-tetramethyl-2,8,10,11,12,13-hexahydro-14H-5,3-(azenometheno)tripyrazolo[3,4-f:3′,4′-j:4″,3″-n][1,4]oxazacyclopentadecin-14-yl]propan-1-ol] | 17.2 | – | – | 45.7 | – | – | 9.29 | 34.8 | 16.8 | 21.3 | 69.5 | 57 | 63 |
| CCOc1nn([C@@H](C)CO)c2c1/C=C/c1n[nH]c3c(C)nc(cc13)-c1c(C)nn(C)c1O[C@H](C)CN(C)C2 [Ex. 98] | 0.74 | – | – | 1.01 | – | – | 0.24 | 16.8 | 1.35 | 1.9 | 3.62 | 3.34 | 5.71 |

Other lines, results leading:

| IC50 [1] [nM] | IC50 [2] [nM] | IC50 [3] [nM] | IC50 [4] [nM] | IC50 [5] [nM] | IC50 [6] [nM] | IC50 [7] [nM] | IC50 [8] [nM] | IC50 [9] [nM] | IC50 [10] [nM] | IC50 [11] [nM] | IC50 [12] [nM] | IC50 [13] [nM] | SMILES |
| --- | --- | --- | --- | --- | --- | --- | --- | --- | --- | --- | --- | --- | --- |
| 3.74 | 0.23 | 0.08 | 13.8 | 0.08 | 0.23 | 0.16 | – | – | – | – | – | – | Cc1nn(CCO)c2c1/C=C/c1n[nH]c3cnc(cc13)-c1c(C)nn(C)c1O[C@@H](C)CN(C)C2 [Ex. 41, 2-[(10S,17E)-6,8,10,12,16-pentamethyl-2,8,10,11,12,13-hexahydro-14H-5,3-(azenometheno)tripyrazolo[3,4-f:3′,4′-j:4″,3″-n][1,4]oxazacyclopentadecin-14-yl]ethan-1-ol] |
| 0.54 | – | – | 0.69 | – | – | 0.04 | 7.67 | 0.3 | 1.57 | 1.09 | 1.11 | 0.68 | CCOc1nn(C[C@H](C)O)c2c1/C=C/c1n[nH]c3cnc(cc13)-c1c(C)nn(C)c1O[C@@H](C)CN(C)C2 [Ex. 86, (2S)-1-[(10S,17E)-16-ethoxy-6,8,10,12-tetramethyl-2,8,10,11,12,13-hexahydro-14H-5,3-(azenometheno)tripyrazolo[3,4-f:3′,4′-j:4″,3″-n][1,4]oxazacyclopentadecin-14-yl]propan-2-ol] |
| 0.97 | – | – | 0.88 | – | – | 0.07 | 8.86 | 0.39 | 1.38 | 1.01 | 2.6 | 1.43 | CCOc1nn(CCO)c2c1/C=C/c1n[nH]c3c(C)nc(cc13)-c1c(C)nn(C)c1O[C@@H](C)[C@H]1CCCN1C2 [Ex. 177, 2-[(8aR,9S,19E)-1-ethoxy-9,11,13,21-tetramethyl-7,8,8a,9,11,17-hexahydro-6H-14,16-(azenometheno)tripyrazolo[3,4-f:3′,4′-j:4″,3″-n]pyrrolo[2,1-c][1,4]oxazacyclopentadecin-3(4H)-yl]ethan-1-ol] |
| 1.11 | – | – | 0.78 | – | – | 0.11 | 1.46 | 0.43 | 2.08 | 1.06 | 3.12 | 1.52 | CCOc1nn([C@@H](C)CO)c2c1/C=C/c1n[nH]c3cnc(cc13)-c1c(C)nn(C)c1OC[C@@H](C)N(C1CC1)C2 [Ex. 111, (2S)-2-[(11R,17E)-12-cyclopropyl-16-ethoxy-6,8,11-trimethyl-2,8,10,11,12,13-hexahydro-14H-5,3-(azenometheno)tripyrazolo[3,4-f:3′,4′-j:4″,3″-n][1,4]oxazacyclopentadecin-14-yl]propan-1-ol] |
